Assays:
intestinal tumours [1] = assay: Intestinal tumour burden after tamoxifen-induced conditional Apc deletion in Lgr5CreERT2;Apcfl/fl mice; format: in vivo; conditions: tamoxifen-treated Lgr5^CreERT2;Apc^fl/fl mice, prophylactic daily AZD1480 30 mg/kg, 5 weeks
Description: e Quantification of intestinal tumour burden of mice using the Metamorph analysis tool (Barker et al., 2009) after tamoxifen-induced conditional Apc deletion in adult Lgr5^CreERT2;Apc^fl/fl mice that also received daily administration of AZD1480 (30 mg/kg) or vehicle during this time. (*p≦0.04; n=3 mice).
d Intestinal tumour burden 5 weeks after tamoxifen-induced conditional Apc deletion in adult Lgr5^CreERT2;Apc^fl/fl mice that also received daily administration of AZD1480 (Jak2i; 30 mg/kg) or vehicle during this time. Higher magnifications of the boxed areas are provided and arrows point to tubular adenomas whilst arrowheads point to micro-adenomas. Scale bars=1 mm.
10 week old Lgr5CreERT2;Apcfl/fl mice received four i.p injections with tamoxifen (10 mg/ml; 300 ul, 200 ul, 200 ul, 200 ul) over four consecutive days. Three days after the last injection, mice received daily oral gavages with either vehicle (tap water, pH 2.0) or CYT387 (30 mg/kg) for four weeks. Regime was 5 days treatment followed by 2 days off treatment.
(§1) Hematoxilin and Eosin-stained sections were scanned using an Aperio ScanScope XT (Aperio, USA) pathology slide scanner with a 20x PlanApo NA0.6 objective and areas of interest were extracted using Aperio ImageScope software v11.1.2.760. The area of individual tumors was outlined using MetaMorph v7.7.7 and standardized against the entire length of the colon section as described (Barker et al., 2009).

intestinal tumours [2] = assay: Treatment of ApcMin mice with established intestinal tumours; format: in vivo; conditions: Apc^Min mice treated daily 30 mg/kg from 6 to 12 weeks of age; increased in vehicle cohort
Text: as §1

SW480 cells [3] = assay: p-STAT3 / β-CATENIN immunofluorescence and SOCS3 RT-qPCR in SW480 cells; format: cell-based, human
Description: (§2) d Immunofluorescence staining for β-CATENIN or tyrosine-705 phosphorylated STAT3 in an isogenic pair of SW480 cells grown in the presence of 1 μM AZD1480 (Jak2i) or vehicle. SW480 cells are APC mutant and lack expression of functional APC protein, while SW480^APC cells have been reconstituted to express wild-type APC. Scale bar=20 μm.
(§3) g RT-qPCR expression analysis for the STAT3 target gene SOCS3 in SW480 and SW480^APC CRC cells grown for 10 days under colony forming conditions in soft agar in the presence of the indicated treatment. Expression in the vehicle-treated cultures was arbitrarily set as 1. (*p≦0.04; triplicate cultures in each of two repeats).
(§4) SW480 and SW480^APC cells (Faux et al., 2004) were seeded in 2 ml of RPMI media supplemented with 10% FBS and 1% penicillin/streptomycin in 35 mm culture dishes at a density of 2×10^5 cells per dish. Three days later cultures were exposed to AZD1480 (1 μM) for 15 min. Co-immunofluorescence was then performed with antibodies to rabbit phospho-Stat3 (Tyr705, Santa Cruz #9134s, 1:200 dilution) and mouse β-catenin (Transduction Laboratories, 1:400). Colony formation assays of SW480 cells in soft agar were performed as described (Faux et al., 2004) in the presence of either AZD1480, (1 μM), the Stat3 inhibitor S3I-201 (Biovision, 50 μM) or recombinant human IL11 (Genetics Institute, 10 ng/ml). All experiments were performed in triplicates and repeated at least once. Vehicle was methylcellulose.
(§5) Gene expression analysis by RT-qPCR was performed using the SybrGreen method (ABI) as described previously (Phesse et al., 2008). Fold change was calculated using the 2^−ΔΔCT method (Livak et al., 2001). Protein expression was analysed by Western blot by transferring SDS-PAGE separated protein lysates to nitrocellulose membrane and blocked either in 5% non-fat milk powder and probed with antibodies detecting p16 (Santa Cruz; #sc-467), Bmi1 (Millipore #[…]), Actin (Sigma; #A2066) or Gapdh (Santa Cruz; #sc-69778). All antibodies were diluted 1:1000 in BSA or non-fat milk powder and incubations were performed overnight.

SW480^APC cells = assay: p-STAT3 immunofluorescence and SOCS3 RT-qPCR in SW480APC cells; format: cell-based, human
Description: as §2, §3, §4, §5

SW480 cells [4] = assay: Soft agar colony growth assay, SW480; format: cell-based, human; conditions: SW480, 10 days; AZD1480 1 μM, S3I-201 50 μM, IL11 10 ng/ml
Description: e Photograph of SW480 and SW480^APC CRC cells grown for 10 days under colony forming conditions in soft agar in the presence of vehicle or 1 μM of Jak2 inhibitor AZD1480 (Jak2i) (Scale bar=200 μm)
f Colony forming capacity of an isogenic pair of SW480 cells scored 10 days after the indicated treatment. (*p≦0.04; triplicate cultures and repeated).
as §4

DLD1 cells = assay: DLD1 tumor xenografts; format: in vivo, mice (human DLD1 xenograft); conditions: DLD1 (high Wnt signaling), BALB/c nude mice, daily gavage 30 mg/kg from day 7
Description: (§6) c, d Tumour xenograft burden in BALB/c nude mice injected s.c. with DLD1 cells or RKO cells in PBS and receiving daily gavage with AZD1480 (30 mg/kg) or vehicle starting on the 7th day after cell inoculation. (*p≦0.0004; two sided t-test; n=8).

RKO cells = assay: RKO tumor xenografts; format: in vivo; conditions: RKO (low Wnt signaling), BALB/c nude mice, daily gavage 30 mg/kg from day 7
Description: as §6

intestinal epithelium = assay: Homeostatic turnover of the intestinal epithelium and body weight in treated mice; format: in vivo
Description: a qRT-PCR expression analysis for Wnt target genes from RNA extracted from AZD1480 or vehicle-treated BALB/c-nude hosts used for the xenograft experiments (*p<0.04, n≧5 mice). b Immunohistochemical analysis of cell proliferation (BrdU), goblet cells (Periodic Acid/Schiff, PAS) and Paneth cells ([…]) or vehicle Control. Scale bar 50 μm. c Weight of BALB/c-nude mice treated with either vehicle or AZD1480 (30 mg/kg, daily) between days 5 and 21 of xenograft experiment (n=8).

[5] = mice treated for 3 weeks, 30 mg/kg daily, vs vehicle

For Cc1cc(Nc2nc(N[C@@H](C)c3ncc(F)cn3)ncc2Cl)n[nH]1 [AZD1480], the “growth and de novo tumour formation” value (intestinal tumours [1]) was “profoundly reduced”, the total tumour area (intestinal tumours [2]) was “remained remarkably constant” and the tumour number (intestinal tumours [2]) was “remained remarkably constant”. The “accumulation of nuclear β-CATENIN” value (SW480 cells [3]; APC-deficient SW480, 1 μM AZD1480) was “did not diminish”, the “accumulation of activated (phosphorylated) p-STAT3” value (SW480 cells [3]; SW480, 1 μM AZD1480) was “reduced accumulation” and the SOCS3 expression (SW480 cells [3]; SW480, RT-qPCR, AZD1480 1 μM, IL11 10 ng/ml) was “reduced SOCS3 expression”. For the same compound, the “accumulation of activated (phosphorylated) p-STAT3” value (SW480^APC cells; 1 μM AZD1480) was “reduced accumulation”, the SOCS3 expression (SW480^APC cells; RT-qPCR, AZD1480 1 μM, IL11 10 ng/ml) was “reduced SOCS3 expression” and the “colony formation in soft agar” value (SW480 cells [4]) was “strongly impaired”. For the same compound, the xenograft growth (DLD1 cells) was “sufficient to reduce xenograft growth”, the xenograft tumor growth (RKO cells) was “did not result in reduced tumor growth” and the body weight (intestinal epithelium; BALB/c-nude mice, 30 mg/kg daily, days 5 to 21 of xenograft experiment) was “did not affect body weight”. The “intestinal expression of prototypical Wnt target genes” value (intestinal epithelium; BALB/c-nude xenograft hosts, qRT-PCR) was “remained unaffected”, the “proportion of BrDU-positive proliferating intestinal epithelium cells” value (intestinal epithelium; [5]) was “no differences” and the “proportion of PAS-staining goblet cells” value (intestinal epithelium; [5]) was “no differences”. For the same compound, the “proportion of lysozyme-positive Paneth cells” value (intestinal epithelium; [5]) was “no differences”.

— US20160045498A1, “METHODS OF TREATING DISEASES CHARACTERIZED BY EXCESSIVE WNT SIGNALLING” (THE WALTER AND ELIZA HALL INSTITUTE OF MEDICAL RESEARCH, priority 2013, published 2016)
